Measured values published in article PMC4790305, “An FDA-Drug Library Screen for Compounds with Bioactivities against Meticillin-Resistant Staphylococcus aureus (MRSA)” (Antibiotics, 2015).
≈ marks a conversion by molar mass, not a printed value.

Experiments:
[1] = system: MRSA USA 100 (ATCCBAA-1681); experiment: Minimum inhibitory concentration (MIC) assay, MRSA USA 100; assay type: cell-based, meticillin-resistant Staphylococcus aureus; conditions: Staphylococcus aureus; microdilution, overnight 35 °C; read-out: MRSA MICs USA 100
Excerpt: (§1) The 1163 FDA-approved drugs were purchased as a library set from Selleckchem (catalog #L1300). For MIC assays, Ivacaftor, Mupirocin and Tigecycline were purchased from Santa Cruz Biotechnology (Dallas, TX, USA). All other test compounds were purchased from Sigma-Aldrich (St. Louis, MO, USA) and were used without further purification. MRSA strains USA 100 (ATCCBAA-1681), USA 300 (ATCC-BAA-1680), USA400 (ATCC-BAA-1707) and VISA (ATCC-700699) were purchased from ATCC (Manassas, VA, USA).
(§2) The MICs of antibiotics and peptides were determined using the microdilution method from the Clinical and Laboratory Standards Institute (CLSI) guidelines. Briefly, bacteria were grown fresh from frozen stock in MH2 agar at 37 °C. After an overnight incubation, five MRSA colonies were selected to grow in cation-adjusted MH2 broth (BD Biosciences catalog #212322) in a shaker incubator at 37 °C, 220 RPM. Cells were grown to an optical density (OD600) of 0.15–0.16 using a Microplate Spectrophotometer (Molecular Devices Spectra Max Plus), which corresponds to 1–2 × 10^8 CFU/mL. Test compounds were constituted into 4 mM DMSO stock solutions and then subjected to two-fold serial dilution in a 96-well plate with concentrations ranging from 100 to 0.2 μM in duplicates. The amount of 50 μL of microbial culture containing ~1–2 × 10^6 CFU/mL of microbes in the respective broths was introduced into each well containing 50 μL of compound. After an overnight incubation at 35 °C, OD600 measurements were conducted using the Microplate Spectrophotometer. The MIC was defined as the lowest drug concentration (μM) required to inhibit microbial growth.

[2] = system: panel of clinical MRSA strains (USA 100, USA 300, USA 400 and VISA); experiment: MIC assay against panel of clinical MRSA strains; assay type: cell-based, meticillin-resistant Staphylococcus aureus; conditions: Staphylococcus aureus, across USA 100, USA 300, USA 400 and VISA
Excerpt: as §1, §2

MRSA USA100 = experiment: Single-point 10 μM bacteria growth inhibition assay; assay type: cell-based, meticillin-resistant Staphylococcus aureus; conditions: MRSA USA 100
Excerpt: as §1
MRSA USA100 was grown from frozen glycerol stock on Mueller Hinton 2 (MH2) agar overnight at 37 °C. Five colonies were selected from the agar plate and grown in cation-adjusted MH2 broth (BD Biosciences catalog #212322, Franklin Lakes, NJ, USA) in a shaker incubator at 37 °C, 220 RPM. Cells were grown to 1–2 × 10^8 CFU/mL and diluted 1:100 in MH2 broth. An amount of 50 μL of test compounds pre-dissolved in MH2 broth at 20 μM concentrations were added in duplicates into each well in a 96-well plate. A total of 50 μL of bacteria inoculums containing ~1 × 10^6 CFU/mL of bacteria in MH2 broth was introduced into each well containing the test compounds. The final DMSO concentration was kept at 2.5% in each well. After an overnight incubation at 35 °C, optical density (OD600) of each well was determined using the Microplate Spectrophotometer (Molecular Devices Spectra Max Plus, Sunnyvale, CA, USA).

VISA (ATCC-700699) = experiment: Minimum inhibitory concentration (MIC) assay, VISA; assay type: cell-based, meticillin-resistant Staphylococcus aureus; conditions: Staphylococcus aureus, ATCC 700699 / MRSA / VISA; microdilution, overnight 35 °C; read-out: MRSA MICs VISA
Excerpt: as §1, §2

[3] = system: MRSA USA400 (ATCC-BAA-1707); experiment: Minimum inhibitory concentration (MIC) assay, MRSA USA 400; assay type: cell-based, meticillin-resistant Staphylococcus aureus; conditions: Staphylococcus aureus; microdilution, overnight 35 °C; read-out: MRSA MICs USA 400
Excerpt: as §1, §2

[4] = system: Adult normal human epidermal keratinocytes (NHEK); experiment: Human epidermal keratinocyte viability (GI50) assay; assay type: cell-based; conditions: 120 h, 5 days incubation, CellTiter-Glo, read-out: Keratinocyte GI50
Method: Adult normal human epidermal keratinocytes (NHEK) were purchased from Lonza (catalog #00192627, Basel, Switzerland) and cultured in keratinocyte growth medium (Lonza KGM-Gold Bullet Kit) containing growth supplements (Lonza Reagent Pack) at 5% CO2 (37 °C). The cell viability assay was performed using the CellTiter-Glo Luminescent Cell Viability Assay protocol from Promega (www.promega.com, Fitchburg, WI, USA). Briefly, NHEK were treated with test compounds in keratinocyte growth medium in 96-well plates (Thermo Scientific Nunclon Delta, Waltham, MA, USA). Treated cells were incubated for 5 days at 5% CO2 (37 °C). Promega CellTiter-Glo Reagent was added and plates were shaken on an orbital shaker for […]. Next, well contents (100 μL) from each well were transferred into opaque 96-well plates (PerkinElmer OptiPlate-96) and luminescence measured by a microplate reader (Tecan Safire2).

[5] = system: MRSA USA 300 (ATCC-BAA-1680); experiment: Minimum inhibitory concentration (MIC) assay, MRSA USA 300; assay type: cell-based, meticillin-resistant Staphylococcus aureus; conditions: Staphylococcus aureus; microdilution, overnight 35 °C; read-out: MRSA MICs USA 300
Excerpt: as §1, §2

mouse = system: mouse; design: method as in PMID 12724731; conditions: cited from earlier work
[6] = intravenously administered; cited from earlier work
MRSA USA300 [7] = experiment: Bactericidal/static determination assay; assay type: cell-based, meticillin-resistant Staphylococcus aureus; conditions: MRSA USA300, 4× MIC; bactericidal when ≥99.9% cell death
Method: After the MICs of test compounds were determined using the microdilution method described in Section 2.2, the entire well contents (100 μL) corresponding to 4× the MIC of the antibiotic or peptide were transferred and spread on fresh sterile MH2 agar plates. The plates were incubated overnight at 37 °C and the number of colony forming units (CFU) was determined the next day. A compound was classified as bactericidal when ≥99.9% cell death was observed.

MRSA USA300 [8] = experiment: Time-kill assay; assay type: cell-based, meticillin-resistant Staphylococcus aureus; conditions: MRSA USA300, 4× MIC, within 6 h
Method: Bacteria cells were grown to 1 × 10^8 CFU/mL in MH2 broth and then diluted […] into 5 mL aliquots to a density of 1 × 10^6 CFU/mL in a flask. Test compounds pre-dissolved in DMSO corresponding to 4× their MICs were then added into each flask with a final DMSO concentration of 2.5% v/v. The negative control was 2.5% DMSO. The flasks were incubated in a shaking incubator (220 RPM) at 37 °C. Samples (100 μL) were taken hourly from the flasks between t = 0 and t = 6 h. The samples were serially diluted in MH2 broth before plating on sterile MH2 agar and incubated overnight at 37 °C. A bacteria count for each plate was conducted the next day. A graph of Log CFU/mL was plotted against time to obtain the time-kill graph.

rats = conditions: rat, cited from earlier work
[9] = printed conversion of μM values

SMILES | MIC [1] [µM] | MIC [2] [µM] | Antibacterial activity in single-point screen (MRSA USA100) | MIC (VISA (ATCC-700699)) [µM] | MIC [3] [µM] | GI50 [4] [µM] | MIC [5] [µM] | intravenous LD50 (mouse) [mg/kg] | half-life [6] [min] | MIC [2, 9] [ng/mL] | Bactericidal/static classification (MRSA USA300 [7]) | log reduction in bacteria count (MRSA USA300 [8]) [log] | intraperitoneal LD50 (rats; intraperitoneal) [mg/kg] | intravenous LD50 (rats; intravenous) [mg/kg]
O=c1[nH]cc(F)c(=O)[nH]1 [5-fluorouracil, 5-Fluorouracil] | 6.25 (≈ 0.813 µg/mL) | 3.13 to 6.25 | either bacteriostatic or bactericidal | 6.25 (≈ 0.813 µg/mL) | 3.13 (≈ 0.407 µg/mL) | 33.3 ± 2.6 | 3.13 (≈ 0.407 µg/mL) | 81 | 10 to 16 | – | – | – | – | –
CCC[C@@H]1C[C@@H](C(=O)N[C@@H]([C@H]2O[C@H](SC)[C@H](O)[C@@H](O)[C@H]2O)[C@H](C)Cl)N(C)C1 [Clindamycin] | > 100 | – | – | > 100 | 0.2 (≈ 0.085 µg/mL) | > 50 | 0.2 (≈ 0.085 µg/mL) | – | – | – | – | – | – | –
C[C@H]1c2cccc(O)c2C(=O)C2=C(O)[C@]3(O)C(=O)C(C(N)=O)=C(O)[C@@H](N(C)C)[C@@H]3[C@@H](O)[C@@H]21 [Doxycycline] | 0.39 (≈ 0.173 µg/mL) | – | – | 12.5 (≈ 5.56 µg/mL) | 1.56 (≈ 0.693 µg/mL) | 36.9 ± 3.7 | 0.78 (≈ 0.347 µg/mL) | – | – | – | – | – | – | –
O=c1[nH]c(=O)n([C@H]2C[C@H](O)[C@@H](CO)O2)cc1F [Floxuridine] | 0.025 (≈ 0.00615 µg/mL) | 0.00313 to 0.025 | either bacteriostatic or bactericidal | 0.00625 (≈ 0.00154 µg/mL) | 0.0125 (≈ 0.00308 µg/mL) | > 100 | 0.00313 (≈ 0.000771 µg/mL) | – | – | 0.77 to 6.16 | bactericidal | ~2 | 1600 | –
Nc1ccn([C@@H]2O[C@H](CO)[C@@H](O)C2(F)F)c(=O)n1 [Gemcitabine] | 0.1 (≈ 0.0263 µg/mL) | 0.05 to 0.1 | either bacteriostatic or bactericidal | 0.05 (≈ 0.0132 µg/mL) | 0.1 (≈ 0.0263 µg/mL) | 1.9 ± 0.2 | 0.05 (≈ 0.0132 µg/mL) | – | – | 10 to 20 | – | – | – | 236
CC(C)(C)c1cc(C(C)(C)C)c(NC(=O)c2c[nH]c3ccccc3c2=O)cc1O [Ivacaftor] | 6.25 (≈ 2.45 µg/mL) | 6.25 | either bacteriostatic or bactericidal | 6.25 (≈ 2.45 µg/mL) | 6.25 (≈ 2.45 µg/mL) | 5.9 ± 0.5 | 6.25 (≈ 2.45 µg/mL) | – | – | – | – | – | – | –
